Literature values, collected in patent publication US12064417B2, “Combination comprising a glucocorticoid and EDO-S101” (Purdue Pharmaceutical Products L.P., priority 2014, dated 2024).

Tested on: multiple myeloma cell lines
Details: in vitro, relative to bendamustin

Cn1c(CCCCCCC(=O)NO)nc2cc(N(CCCl)CCCl)ccc21 [EDO-S101]
activity greater than the activity shown by bendamustin: 35-100
